Inconclusive results are not listed. Calls of active or inactive are those of the source. The rule behind the calls is not given here.
Assay: NIH/3T3 fibroblast cytotoxicity, dose response, cytotoxicity control, cell-based, plate reader, dry powder, set 2 (AID 652280)
Details: NIH/3T3 mouse fibroblast toxicity, plate reader

| SMILES | activity change, negative = toxicity (at 16 µM (top of the series)) | activity change, negative = toxicity (at 18 µM (top of the series)) |
| --- | --- | --- |
| CN(C)C(=O)c1ccc(-c2ccc([C@H]3[C@H](CO)N4CCCCN(CC5CC5)C[C@@H]34)cc2)cc1 | 24.4% (inactive) | – |
| CC(C)N1CC2(CN(Cc3ccccc3)C2)Oc2c(NC(=O)c3ccncc3)cccc2C1=O | -2.24% (inactive) | – |
| CC(C)(C)S(=O)N1Cc2cc(C(=O)NCc3ccc4c(c3)OCO4)nc(-c3cccc(-c4cccc(F)c4)c3)c2[C@@H]1CCO (some centres undefined) | -21.2% (inactive) | – |
| CC(C)N1CC[C@H](CN(C)Cc2ccc(Oc3ccccc3)cc2)Oc2c(NC(=O)c3ccncc3)cccc2C1=O | -22.1% (inactive) | – |
| C[C@H]1CN([C@@H](C)CO)C(=O)c2cccc(NC(=O)c3ccncc3)c2O[C@@H]1CN(C)Cc1ccc(Oc2ccccc2)cc1 | 12.9% (inactive) | – |
| CC(C)N1CC2(CN(Cc3ccccc3F)C2)Oc2c(NC(=O)c3ccncc3)cccc2C1=O | 6.11% (inactive) | – |
| C[C@@H]1CCCCO[C@H](CN(C)Cc2ccc(Cl)c(Cl)c2)[C@@H](C)CN([C@H](C)CO)C(=O)c2cc(N(C)C)ccc2O1 | 82.1% (inactive) | – |
| CC(C)N1CC2(CN(Cc3ccc(-c4cccnc4)cc3)C2)Oc2c(NC(=O)c3ccncc3)cccc2C1=O | -22.8% (inactive) | – |
| CC(C)N1C[C@H](CN(C)Cc2ccc(Cl)cc2)Oc2c(NC(=O)c3ccnnc3)cccc2C1=O | 3.72% (inactive) | – |
| CN(C)C(=O)c1cccc(-c2ccc([C@H]3[C@H]4CN(C(=O)C5CCC5)CCCCN4[C@H]3CO)cc2)c1 | 24.3% (inactive) | – |
| Cc1ccccc1-c1ccc([C@H]2[C@H](CO)N3CCCCN(C(=O)c4cccnc4)C[C@@H]23)cc1 | -15% (inactive) | – |
| CN(C)CC#Cc1cccc(-c2nc(C(=O)NCc3ccc(Oc4ccccc4)cc3)cc3c2[C@H](CCO)N(S(=O)C(C)(C)C)C3)c1 (some centres undefined) | 63.9% (inactive) | – |
| CCC(=O)N1CC[C@@H]2[C@H]1c1cc(-c3ccccc3)ccc1N(C)[C@@H]2CO | -26.5% (inactive) | – |
| COc1ccc(S(=O)(=O)N(C)C[C@H]2OCCCC[C@@H](C)Oc3ccc(N(C)C)cc3C(=O)N([C@H](C)CO)C[C@@H]2C)cc1 | 12.3% (inactive) | – |
| CC(C)N1CC2(CN(Cc3ccccn3)C2)Oc2c(NC(=O)c3ccncc3)cccc2C1=O | -3.3% (inactive) | – |
| C[C@@H]1CN([C@@H](C)CO)C(=O)c2cccc(NC(=O)c3ccncc3)c2O[C@@H]1CN(C)Cc1ccc(Oc2ccccc2)cc1 | 15.4% (inactive) | – |
| C[C@H]1CN([C@@H](C)CO)C(=O)c2cccc(NC(=O)c3ccncc3)c2O[C@@H]1CN(C)Cc1cccc(Cl)c1 | -20.7% (inactive) | – |
| CC(C)N1C[C@H](CNCc2ccc(Cl)cc2)Oc2c(NC(=O)c3ccncc3)cccc2C1=O | -20.3% (inactive) | – |
| CC(C)N1CC2(CN(Cc3ccc(Cl)cc3)C2)Oc2c(NC(=O)c3ccncc3)cccc2C1=O | -2.46% (inactive) | – |
| CCOC(=O)c1cc2c(c(-c3cccc(C#CCN(C)C)c3)n1)[C@@H](CCO)N(S(=O)C(C)(C)C)C2 (some centres undefined) | 21.1% (inactive) | – |
| O=C(Cc1ccccn1)N1CCCCN2[C@@H](CO)[C@H](c3ccc(-c4ccccc4)cc3)[C@@H]2C1 | -15.8% (inactive) | – |
| CC(C)N1C[C@H](CN(C)Cc2ccc(Cl)cc2)Oc2c(NC(=O)c3ccncc3)cccc2C1=O | -35.4% (inactive) | – |

| SMILES | activity change, negative = toxicity (at 16 µM (top of the series)) | activity change, negative = toxicity (at 18 µM (top of the series)) |
| --- | --- | --- |
| CC(C)N1C[C@H](C)[C@@H](CN(C)Cc2ccc(Cl)cc2)Oc2c(NC(=O)c3ccncc3)cccc2C1=O | -13.4% (inactive) | – |
| CC(C)(C)S(=O)N1Cc2cc(C(=O)NCc3ccc4c(c3)OCO4)nc(-c3cccc(C#CCC4CCCC4)c3)c2[C@@H]1CCO (some centres undefined) | 83.4% (inactive) | – |
| C[C@H]1CN([C@@H](C)CO)C(=O)c2cccc(NC(=O)c3ccncc3)c2O[C@@H]1CN(C)Cc1ccc(F)cc1Cl | -10.1% (inactive) | – |
| COc1ccc(CN(C)C[C@@H]2Oc3c(NC(=O)c4ccncc4)cccc3C(=O)N([C@@H](C)CO)C[C@H]2C)cc1 | -22.2% (inactive) | – |
| CC(C)N1C[C@H](C)[C@@H](CN(C)Cc2ccc(Oc3ccccc3)cc2)Oc2c(cccc2-c2nn[nH]n2)C1=O | 28.7% (inactive) | – |
| COc1ccc(S(=O)(=O)N(C)C[C@H]2OCCCC[C@H](C)Oc3ccc(N(C)C)cc3C(=O)N([C@H](C)CO)C[C@@H]2C)cc1 | 10% (inactive) | – |
| CN(C)CC#Cc1cccc(-c2nc(C(=O)NCc3ccc4c(c3)OCO4)cc3c2[C@@H](CCO)N(S(=O)C(C)(C)C)C3)c1 (some centres undefined) | 0.74% (inactive) | – |
| CN(C)C(=O)c1ccc(-c2ccc([C@H]3[C@H](CO)N4CCCCN(C(=O)C5CCC5)C[C@@H]34)cc2)cc1 | -17% (inactive) | – |
| CN(C)C(=O)c1cccc(-c2ccc([C@H]3[C@@H](CO)N4CCCCN(C(=O)C5CCC5)C[C@@H]34)cc2)c1 | 1.53% (inactive) | – |
| CC(C)N1C[C@@H](C)[C@H](CN(C)C(=O)OC(C)(C)C)Oc2c(C#N)cccc2C1=O | -6.53% (inactive) | – |
| COc1ccc(C#Cc2cccc(-c3nc(C(=O)NCc4ccc5c(c4)OCO5)cc4c3[C@@H](CCO)N(S(=O)C(C)(C)C)C4)c2)cc1OC (some centres undefined) | 9.35% (inactive) | – |
| COC[C@H](C)N1C[C@H](C)[C@@H](CN(C)Cc2ccc(Oc3ccccc3)cc2)Oc2c(NC(=O)c3ccncc3)cccc2C1=O | 128% (inactive) | – |
| C[C@@H](CO)N1CC[C@H](CNC(=O)OC(C)(C)C)Oc2c(NC(=O)c3ccncc3)cccc2C1=O | 2.74% (inactive) | – |
| CC(C)(C)S(=O)N1Cc2cc(C(=O)NCc3ccc4c(c3)OCO4)nc(-c3cccc(-c4cc5ccccc5o4)c3)c2[C@H]1CCO (some centres undefined) | -5.85% (inactive) | – |
| C[C@H]1CN([C@@H](C)CO)C(=O)c2cccc(NC(=O)c3ccncc3)c2O[C@@H]1CN(C)Cc1cc(Cl)cc(Cl)c1 | 15% (inactive) | – |
| CC(C)N1C[C@@H](CN(C)CCc2ccc(Cl)cc2)Oc2c(NC(=O)c3ccncc3)cccc2C1=O | -32% (inactive) | – |
| CC(C)N1C[C@H](CN)Oc2c(NC(=O)c3ccncc3)cccc2C1=O | 4.38% (inactive) | – |
| CN(C)C(=O)c1ccc(-c2ccc([C@H]3[C@H](CO)N4CCCCN(Cc5cncnc5)C[C@@H]34)cc2)cc1 | 10.1% (inactive) | – |
| CC(C)N1CC2(CN(C(=O)OC(C)(C)C)C2)Oc2c(NC(=O)c3ccncc3)cccc2C1=O | -9.89% (inactive) | – |
| O=C(Cc1ccccn1)N1CCCCN2[C@@H](CO)[C@H](c3ccc(Br)cc3)[C@@H]2C1 | 9.05% (inactive) | – |
| CC(C)N1CC2(CN(Cc3ccccc3Cl)C2)Oc2c(NC(=O)c3ccncc3)cccc2C1=O | -16.5% (inactive) | – |
| CN(C)CC#Cc1cccc(-c2nc(C(=O)NCCCN3CCOCC3)cc3c2[C@H](CCO)N(S(=O)C(C)(C)C)C3)c1 (some centres undefined) | 16% (inactive) | – |

| SMILES | activity change, negative = toxicity (at 16 µM (top of the series)) | activity change, negative = toxicity (at 18 µM (top of the series)) |
| --- | --- | --- |
| CC(C)N1C[C@H](C)[C@@H](CN(C)C(=O)OC(C)(C)C)Oc2c(cccc2-c2nn[nH]n2)C1=O | 34.3% (inactive) | – |
| CN(C)C(=O)c1cccc(-c2ccc([C@H]3[C@H](CO)N4CCCCN(C(=O)C5CCCC5)C[C@@H]34)cc2)c1 | 32.1% (inactive) | – |
| CC(C)N1C[C@@H](CN(C)Cc2ccc(Cl)cc2)Oc2c(C(=O)Nc3ccncc3)cccc2C1=O | -18.4% (inactive) | – |
| CC(C)N1C[C@@H](CN(C)Cc2ccc(Cl)cc2)Oc2c(NC(=O)c3ccncc3)cccc2C1=O | -18% (inactive) | – |
| C[C@H]1CN([C@@H](C)CO)C(=O)c2cccc(NC(=O)c3ccncc3)c2O[C@@H]1CN(C)Cc1ccc(F)c(Cl)c1 | -32.5% (inactive) | – |
| Cc1ccc(S(=O)(=O)N(C)C[C@H]2OCCCC[C@@H](C)Oc3ccc(N(C)C)cc3C(=O)N([C@H](C)CO)C[C@@H]2C)cc1 | – | 25.8% (inactive) |
| CC(C)(C)S(=O)N1Cc2cc(C(=O)NCc3ccc4c(c3)OCO4)nc(-c3cccc(C#CCC4CCCC4)c3)c2[C@H]1CCO (some centres undefined) | 96.9% (inactive) | – |
| CC(C)N1C[C@@H](CN(C)Cc2ccc(Cl)cc2)Oc2c(NC(=O)c3ccncn3)cccc2C1=O | -18.8% (inactive) | – |
| CC(C)N1C[C@H](CNCc2ccc(Oc3ccccc3)cc2)Oc2c(NC(=O)c3ccncc3)cccc2C1=O | 5.88% (inactive) | – |
| COc1ccccc1CN(C)C[C@H]1Oc2c(NC(=O)c3ccncc3)cccc2C(=O)N([C@@H](C)CO)C[C@@H]1C | -28.8% (inactive) | – |
| O=C(Cn1ccnc1[N+](=O)[O-])NCc1ccccc1 | 17.4% (inactive) | – |
| CN(C)CC#Cc1cccc(-c2nc(C(=O)N[C@@H]3CCN(Cc4ccccc4)C3)cc3c2[C@@H](CCO)N(S(=O)C(C)(C)C)C3)c1 (some centres undefined) | 0.065% (inactive) | – |
| CN(C)C(=O)c1cccc(-c2ccc([C@H]3[C@@H](CO)N4CCCCN(C(=O)C5CCCC5)C[C@@H]34)cc2)c1 | 28.8% (inactive) | – |
| CC(C)N1C[C@@H](CN(C)Cc2ccc(Cl)cc2)Oc2c(NC(=O)c3ccnnc3)cccc2C1=O | 2.62% (inactive) | – |
| CC(C)N1CC[C@@H](CNC(=O)OC(C)(C)C)Oc2c(NC(=O)c3ccncc3)cccc2C1=O | -8.28% (inactive) | – |
| CC(C)N1C[C@@H](C)[C@H](CN(C)C(=O)OC(C)(C)C)Oc2c(C(N)=O)cccc2C1=O | 12.8% (inactive) | – |
| CN(C)C(=O)c1cccc(-c2ccc([C@H]3[C@H](CO)N4CCCCN(C(=O)C5CCC5)C[C@@H]34)cc2)c1 | 11.8% (inactive) | – |
| CC(C)N1C[C@H](C)[C@@H](CN(C)Cc2ccc(Cl)cc2)Oc2c(cccc2-c2nnn(-c3ccncc3)n2)C1=O | 65.7% (inactive) | – |
| CC(C)N1C[C@@H](CNCc2ccc(Oc3ccccc3)cc2)Oc2c(NC(=O)c3ccncc3)cccc2C1=O | -29.5% (inactive) | – |
| CN(C)C(=O)c1cccc(-c2ccc([C@@H]3[C@H](CO)N4CCCCN(C(=O)C5CCC5)C[C@@H]34)cc2)c1 | -3.74% (inactive) | – |

Source: PubChem BioAssay AID652280 (Broad Institute, 2013)
